From PMC5053523, “In Vitro Antibacterial Activity of Rhodanine Derivatives against Pathogenic Clinical Isolates” (PLoS ONE, 2016)
In brackets after ≈: the same amount, converted by molar mass. Like-named read-outs stand apart in the source and are kept apart here.

Tests used:
[1] = system: Bacillus Strains; assay: Broth microdilution MIC50/MIC90 and MIC range, Bacillus strains panel; type: cell-based, Bacillus spp.; settings: 10 Bacillus strains
From the text: The broth microdilution technique was used, followed by subculturing on agar plates that were rhodanine—free. […] The MICs reported represent the lowest concentration of each compound necessary to inhibit bacterial growth and the MBCs represent the lowest concentration required to reduce the initial bacterial inoculum by ≥ 99.9%.

[2] = system: vancomycin resistant enterococci (VRE); assay: Broth microdilution MIC50/MIC90, VRE panel; type: cell-based; settings: Enterococcus, 10 VRE strains; for MIC90: VRE, read-out: MIC 90; for MIC50: read-out: MIC 50
[3] = system: Escherichia coli O157:H7; assay: MIC with/without sub-MIC colistin, Escherichia coli O157:H7; type: cell-based
Method in brief: (§1)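 Sub-MIC colistin or PMBN added to broth MIC tests of rhodanines and reference antibiotics against Gram-negative strains; AcrAB efflux-deficient E. coli SM1411ΔacrAB also tested.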

[4] = system: MRSA USA300; assay: MIC against MRSA USA300 with and without 4% human serum albumin; type: cell-based, Staphylococcus aureus; settings: Staphylococcus aureus, read-out: MIC against MRSA USA300
Method in brief: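 MIC measured in tryptic soy broth spiked with 4% HSA and without it, using CLSI broth microdilution on MRSA USA300. Value reported is the lowest concentration preventing bacterial growth.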

[5] = system: Klebsiella pneumoniae; assay: MIC with/without PMBN, Klebsiella pneumoniae; type: cell-based
Method in brief: as §1

[6] = system: Acinetobacter baumannii; assay: MIC with/without PMBN, Acinetobacter baumannii; type: cell-based
Method in brief: as §1

[7] = system: Salmonella Typhimurium; assay: MIC with/without PMBN, Salmonella Typhimurium; type: cell-based
Method in brief: as §1

[8] = system: Escherichia coli O157:H7; assay: MIC with/without PMBN, Escherichia coli O157:H7; type: cell-based
Method in brief: as §1

[9] = system: Salmonella Typhimurium; assay: MIC with/without sub-MIC colistin, Salmonella Typhimurium; type: cell-based
Method in brief: as §1

[10] = system: Clostridium difficile; assay: MIC against Clostridium difficile, anaerobic broth dilution; type: cell-based; settings: Clostridioides difficile
Method in brief: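 Clinical C. difficile isolates grown anaerobically 48 h at 37 °C, suspended to 0.5 McFarland and diluted 1:300 in pre-reduced supplemented Brain Heart Infusion broth. Compounds serially diluted; plates incubated anaerobically at 37 °C for 48 h. MIC = lowest concentration with no visible growth.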

[11] = system: Pseudomonas aeruginosa; assay: MIC with/without PMBN, Pseudomonas aeruginosa; type: cell-based
Method in brief: as §1

[12] = system: Pseudomonas aeruginosa; assay: MIC with/without sub-MIC colistin, Pseudomonas aeruginosa; type: cell-based
Method in brief: as §1

[13] = system: P. aeruginosa; assay: Broth microdilution MIC, P. aeruginosa; type: cell-based; settings: Pseudomonas aeruginosa
[14] = system: Bacillus anthracis; assay: microbe, parasite or virus in culture; type: cell-based
[15] = system: B. licheniformis; assay: Broth microdilution MIC/MBC, B. licheniformis; type: cell-based; settings: Bacillus licheniformis; for MBC: read-out: MBC; for MIC: read-out: MIC
[16] = system: K. pneumoniae; assay: Broth microdilution MIC, K. pneumoniae; type: cell-based
[17] = system: Candida albicans; assay: MIC against Candida albicans; type: cell-based; settings: table prints none, read-out: MIC
[18] = Escherichia coli O157:H7 ATCC 35150, colistin (+) […], read-out: MIC
[19] = Escherichia coli O157:H7 ATCC 700728, colistin (+) […], read-out: MIC
[20] = Klebsiella pneumoniae ATCC BAA 1706, PMBN (+) 4 μg/mL
[21] = Klebsiella pneumoniae ATCC BAA 2146, PMBN (+) 4 μg/mL
[22] = Acinetobacter baumannii ATCC BAA747, PMBN (+) 4 μg/mL, read-out: MIC
[23] = Acinetobacter baumannii ATCC BAA19606, PMBN (+) 4 μg/mL, read-out: MIC
[24] = Acinetobacter baumannii, ATCCBAA747
[25] = Acinetobacter baumannii, ATCCBAA19606
[26] = Salmonella Typhimurium ATCC 700720, PMBN (+) 4 μg/mL, read-out: MIC
[27] = Salmonella enterica, ATCC 700720 / TYPHIMURIUM
[28] = Escherichia coli O157:H7 ATCC 35150, PMBN (+) 4 μg/mL, read-out: MIC
[29] = Escherichia coli O157:H7 ATCC 700728, PMBN (+) 4 μg/mL, read-out: MIC
[30] = Salmonella Typhimurium ATCC 700720, colistin (+) […], read-out: MIC
[31] = C. difficile Isolate-1 NR-13427
[32] = C. difficile Toxigenic Strain P8 NR-32888
[33] = Pseudomonas aeruginosa ATCC 9721, PMBN (+) 4 μg/mL, read-out: MIC
[34] = Pseudomonas aeruginosa, ATCC9721
[35] = Pseudomonas aeruginosa ATCC 921, colistin (+) […], read-out: MIC
[36] = Pseudomonas aeruginosa, ATCC921
[37] = NCIB9375, B. licheniformis Gibson 46 (NCIB 9375) NR-2494
[38] = NRS712, B. licheniformis NRS 712 NR-2499
[39] = ATCC10231, C. albicans ATCC 10231, unit from abstract
[40] = C. albicans NR 29434, unit from abstract
[41] = C. albicans NR 29435, unit from abstract
[42] = C. albicans NR29437, unit from abstract
[43] = C. albicans NR29438, unit from abstract
[44] = C. albicans NR 29446, unit from abstract
[45] = C. albicans NR 29448, unit from abstract
[46] = C. albicans NR 29449, unit from abstract
[47] = C. albicans NR 29453, unit from abstract
[48] = C. albicans NR 294436, unit from abstract

## O=C(O)[C@H](Cc1ccccc1)N1C(=O)/C(=C/c2cccc(OC/C=C/c3ccc(Cl)c(Cl)c3)c2)SC1=S [Rh 6]
[1]
  MIC50: 4 µM (≈ 2.28 µg/mL)
  MIC90: 4 µM (≈ 2.28 µg/mL)
[2]
  MIC90: 8 µM (≈ 4.56 µg/mL)
  MIC50: 8 µM (≈ 4.56 µg/mL)
[3]; [18]
  MIC: >64 µM
[3]; [19]
  MIC: >64 µM
[3]; Escherichia coli, ATCC35150
  MIC: > 128 µM
[3]; Escherichia coli, ATCC700728
  MIC: > 128 µM
[4]; 24 h, Media TSB + 4% HSA
  MIC: > 64 µM
[4]; Media TSB
  MIC: 8 µM (≈ 4.56 µg/mL)
[5]; [20]
  MIC: >64 µM
[5]; [21]
  MIC: >64 µM
[5]; Klebsiella pneumoniae, BAA1706
  MIC: > 128 µM
[5]; Klebsiella pneumoniae, BAA2146
  MIC: > 128 µM
[6]; [22]
  MIC: >64 µM
[6]; [23]
  MIC: >64 µM
[6]; [24]
  MIC: > 128 µM
[6]; [25]
  MIC: > 128 µM
[7]; [26]
  MIC: >128 µM
[7]; [27]
  MIC: > 128 µM
[8]; [28]
  MIC: 8 µM (≈ 4.56 µg/mL)
[8]; [29]
  MIC: >64 µM
[8]; Escherichia coli, ATCC35150
  MIC: > 256 µM
[8]; Escherichia coli, ATCC700728
  MIC: > 128 µM
[9]; [30]
  MIC: >64 µM
[9]; [27]
  MIC: > 128 µM
[10]; C. difficile HM-88
  MIC: 4 µM (≈ 2.28 µg/mL)
[10]; C. difficile HM-745
  MIC: 4 µM (≈ 2.28 µg/mL)
[10]; C. difficile HM-746
  MIC: 2 µM (≈ 1.14 µg/mL)
[10]; [31]
  MIC: 4 µM (≈ 2.28 µg/mL)
[10]; [32]
  MIC: 8 µM (≈ 4.56 µg/mL)
[11]; [33]
  MIC: >64 µM
[11]; [34]
  MIC: > 128 µM
[12]; [35]
  MIC: >64 µM
[12]; [36]
  MIC: > 128 µM
[13]; ATCC9721
  MIC: > 128 µM
[13]; ATCC15442
  MIC: > 128 µM
[14]; Bacillus anthracis AMES35
  MBC: 2 µM (≈ 1.14 µg/mL)
  MIC: 2 µM (≈ 1.14 µg/mL)
[14]; Bacillus anthracis UM23
  MBC: 2 µM (≈ 1.14 µg/mL)
  MIC: 2 µM (≈ 1.14 µg/mL)
[14]; Bacillus anthracis Weybridge
  MBC: 2 µM (≈ 1.14 µg/mL)
  MIC: 2 µM (≈ 1.14 µg/mL)
[15]; [37]
  MBC: 4 µM (≈ 2.28 µg/mL)
  MIC: 4 µM (≈ 2.28 µg/mL)
[15]; [38]
  MBC: 4 µM (≈ 2.28 µg/mL)
  MIC: 4 µM (≈ 2.28 µg/mL)
[16]; K. pneumoniae NR-15417
  MIC: >128 µM
[16]; Klebsiella pneumoniae
  MIC: > 128 µM
[17]; [39]
  MIC: > 64 µM
[17]; [40]
  MIC: > 64 µM
[17]; [41]
  MIC: > 64 µM
[17]; [42]
  MIC: > 64 µM
[17]; [43]
  MIC: > 64 µM
[17]; [44]
  MIC: > 64 µM
[17]; [45]
  MIC: > 64 µM
[17]; [46]
  MIC: > 64 µM
[17]; [47]
  MIC: > 64 µM
[17]; [48]
  MIC: > 64 µM

## O=C(O)[C@@H](Cc1ccccc1)N1C(=O)/C(=C/c2cccc(Oc3ccc(F)cc3)c2)SC1=S [Rh 4]
[1]
  MIC50: 8 µM (≈ 3.84 µg/mL)
  MIC90: 16 µM (≈ 7.67 µg/mL)
[2]
  MIC90: 32 µM (≈ 15.3 µg/mL)
  MIC50: 32 µM (≈ 15.3 µg/mL)
[3]; [18]
  MIC: >64 µM
[3]; [19]
  MIC: >64 µM
[3]; Escherichia coli, ATCC35150
  MIC: > 128 µM
[3]; Escherichia coli, ATCC700728
  MIC: > 128 µM
[4]; 24 h, Media TSB + 4% HSA
  MIC: > 64 µM
[4]; Media TSB
  MIC: 16 µM (≈ 7.67 µg/mL)
[5]; [20]
  MIC: >64 µM
[5]; [21]
  MIC: >64 µM
[5]; Klebsiella pneumoniae, BAA1706
  MIC: > 128 µM
[5]; Klebsiella pneumoniae, BAA2146
  MIC: > 128 µM
[6]; [22]
  MIC: >64 µM
[6]; [23]
  MIC: >64 µM
[6]; [24]
  MIC: > 128 µM
[6]; [25]
  MIC: > 128 µM
[7]; [26]
  MIC: >128 µM
[7]; [27]
  MIC: > 128 µM
[8]; [28]
  MIC: 8 µM (≈ 3.84 µg/mL)
[8]; [29]
  MIC: >64 µM
[8]; Escherichia coli, ATCC35150
  MIC: > 256 µM
[8]; Escherichia coli, ATCC700728
  MIC: > 128 µM
[9]; [30]
  MIC: >64 µM
[9]; [27]
  MIC: > 128 µM
[10]; C. difficile HM-88
  MIC: 4 µM (≈ 1.92 µg/mL)
[10]; C. difficile HM-745
  MIC: 2 µM (≈ 0.959 µg/mL)
[10]; C. difficile HM-746
  MIC: 2 µM (≈ 0.959 µg/mL)
[10]; [31]
  MIC: 2 µM (≈ 0.959 µg/mL)
[10]; [32]
  MIC: 4 µM (≈ 1.92 µg/mL)
[11]; [33]
  MIC: >64 µM
[11]; [34]
  MIC: > 128 µM
[12]; [35]
  MIC: >64 µM
[12]; [36]
  MIC: > 128 µM
[13]; ATCC9721
  MIC: > 128 µM
[13]; ATCC15442
  MIC: > 128 µM
[14]; Bacillus anthracis AMES35
  MBC: 4 µM (≈ 1.92 µg/mL)
  MIC: 4 µM (≈ 1.92 µg/mL)
[14]; Bacillus anthracis UM23
  MBC: 4 µM (≈ 1.92 µg/mL)
  MIC: 4 µM (≈ 1.92 µg/mL)
[14]; Bacillus anthracis Weybridge
  MBC: 4 µM (≈ 1.92 µg/mL)
  MIC: 4 µM (≈ 1.92 µg/mL)
[15]; [37]
  MBC: 16 µM (≈ 7.67 µg/mL)
  MIC: 16 µM (≈ 7.67 µg/mL)
[15]; [38]
  MBC: 16 µM (≈ 7.67 µg/mL)
  MIC: 16 µM (≈ 7.67 µg/mL)
[16]; K. pneumoniae NR-15417
  MIC: >128 µM
[16]; Klebsiella pneumoniae
  MIC: > 128 µM
[17]; [39]
  MIC: > 64 µM
[17]; [40]
  MIC: > 64 µM
[17]; [41]
  MIC: > 64 µM
[17]; [42]
  MIC: > 64 µM
[17]; [43]
  MIC: > 64 µM
[17]; [44]
  MIC: 64 µM (≈ 30.7 µg/mL)
[17]; [45]
  MIC: > 64 µM
[17]; [46]
  MIC: > 64 µM
[17]; [47]
  MIC: > 64 µM
[17]; [48]
  MIC: > 64 µM
